No end group written: not given here.
Experiments:
[1] = tested on: Staphylococcus aureus; experiment: Testing swatches for binding and antimicrobial activity (strain not distinguished); format: cell-based; conditions: for colonies counted (cells recovered from swatch), S. aureus: Cj peptide attached to swatches
Method: (§1) Peptides were synthesized at New England peptides with the linker sequence of GGSGGS or GGSGG on the N terminal (Table 1). Textile swatches of cotton or cotton-nylon blends were cut to 1 cm circles and the surface hydroxyls were converted to carboxyl by submerging the swatches 1 hour with agitation at 300 rpm in 25 mL of citric acid buffer (7% citric acid, 5% Sodium Hypophosphate monohydrate). (Synthetic material such as nylon and polyester require a pretreatment with sodium hydroxide before the citric acid buffer is added) To cure the reaction, the swatches were heated in a microwave for 2 minutes. After curing, swatches were washed the in 25 mL of deionized water for 5 min. The swatches were activated by submerging in 30 mL of EDC solution (0.6372 g in 30 mL 200 mM monobasic sodium phosphate buffer pH) and incubating for 45 minutes with 300 rpm agitation. After incubation, swatches were rinsed in 25 mL 20 mM sodium phosphate buffer pH 7.2 for 5 minutes. During the wash, 5 ml peptide samples were prepare from a 2 mg/ml stock of peptide in 20 mM sodium phosphate solution at concentrations of […] 1.25 mg/g peptide. […] Each solution was added to one well of a six well microtiter plate. […] Swatches were washed in 20 mM phosphate buffer for 5 min, then wash for 5 min in water twice and allowed to air dry.
(§2) Inoculation took place using an 8 ml overnight cultures for each target microorganisms in appropriate media. For Staphylococcus aureus, Staphylococcus epidermidis and Pseudomonas aeruginosa cultures were grown on Nutrient broth. For Corynebacterium jeikieson the media was Brain Heart Infusion supplemented with 0.1% Tween 80 and for Micrococcus luteus the media was Brain Heart Infusion media. The OD for each culture was taken and diluted to an OD of 1 using appropriate growth media. For each culture a 1 mL aliquot was taken and transfer to a clean 2 mL eppendorf tube. The tubes were placed into a micro centrifuge and spun at 10,000 G until a pellet has formed. The media was aspirated without disturbing the pellet and the pellet was re-suspend in 1 mL of 0.125× Nutrient Broth with 0.15% Triton X-100. This was repeated to wash pellets. The pellet was re-suspend in 1 ml of 0.125× Nutrient Broth with 0.15% Triton X-100 and the above centrifugation was performed again. After last wash, the pellet was re-suspended in 1 ml of 0.125× Nutrient Broth with 0.15% Triton X-100 then added to 8 mL of 0.125× Nutrient Broth with 0.15% Triton X-100. […] The inoculum was enumerated by adding 500 ul into 4.5 ml of PBS and serial diluting 7 more times. Counts were taken by spread plating only 10^−6, 10^−7 and 10^−8.
(§3) Swatches prepared previously were inoculated with 25 ul of the inoculum (scoured samples will be used as a negative control). The inoculated swatches were incubated for 24 hr at 37° C. in a sealed tube. To analyze binding, the swatches were placed into 2.5 ml modified DE broth and vortex for 5 min. The modified DE broth was serial diluted 10^−3 by adding 500 ul to 4.5 ml phosphate buffer. The dilution was spread plated onto the appropriate growth media (mannitol salts for Staphylococcus aureus, nutrient agar for Staphylococcus epidermidis, Cetrimide agar for Pseudomonas aeruginosa, Brain heart infusion for Micrococcus luteus and Brain Heart infusion with 0.1% Tween 80 for Corynebacterium jeikeium) and incubate overnight.
These concentration were chosen based upon result from previously described experiments. The treated fabric was evaluated against two different strains of Staphylococcus aureus (Table 5). […] A follow up experiment provide additional evidence for this possibility.
(§4) An experiment was run using the same two Staphylococcus aureus strains 27217 and 25923 with the addition of Staphylococcus epidermidis. […]

[2] = tested on: S. epidermidis 12228; experiment: Testing swatches for binding and antimicrobial activity; format: cell-based, Staphylococcus epidermidis; conditions: for colonies counted (cells recovered from swatch), S. epidermidis: Cj peptide attached to swatches
Method: as §1, §2, §3, §4
(§5) The six potential peptides were attached to swatches and exposed to Corynebacterium jeikeium, Micrococcus luteus, Staphylococcus epidermidis, Staphylococcus aureus and Pseudomonas aeruginosa.

[3] = tested on: Pseudomonas aeruginosa; experiment: as above; format: cell-based; conditions: for colonies counted (cells recovered from swatch), P. aeruginosa: Cj peptide attached to swatches
Method: as §1, §2, §3
Pseudomonas aeruginosa was examined using concentrations based upon the textile MIC.
as §5

[4] = tested on: Corynebacterium jeikeium; experiment: as above; format: cell-based; conditions: peptide attached to swatches
Method: as §1, §2, §3, §5

[5] = tested on: Micrococcus luteus; experiment: as above; format: cell-based; conditions: peptide attached to swatches
Method: as §1, §2, §3, §5

[6] = tested on: S aureus 27217; experiment: as above; format: cell-based, Staphylococcus aureus; conditions: PHMB 0%, 24 hr 37° C.
Method: as §1
as §2, with “Counts were taken by spread plating only 10^−6, 10^−7 and 10^−8.” left out
(§6) These concentration were chosen based upon result from previously described experiments. The treated fabric was evaluated against two different strains of Staphylococcus aureus (Table 5). […]

[7] = tested on: S. aureus 25923; experiment: as above; format: cell-based, Staphylococcus aureus; conditions: PHMB 0%, 24 hr 37° C.
Method: as §1
as §2, with “Counts were taken by spread plating only 10^−6, 10^−7 and 10^−8.” left out
as §6

Sequence | colonies counted (cells recovered from swatch), S. aureus [1] | colonies counted (cells recovered from swatch), S. epidermidis [2] | colonies counted (cells recovered from swatch), P. aeruginosa [3] | colonies counted (cells recovered from swatch), C. Jeikeium [4] | colonies counted (cells recovered from swatch), M luteus [5] | other results
GGSGGGWWNSWGKCV (MICROCOCCUS LUTEUS and CORYNEBACTERIUM JEIKIEUM) [Cj 5] | 4195000 | 337000 | TNTC | 0 | 0 | 
GGSGGIGGVSGGLTG (MICROCOCCUS LUTEUS and CORYNEBACTERIUM JEIKIEUM) [Cj 6] | 5980000 | 122000 | 175000 | 0 | 0 | 
GGSGGNGVVLTL (MICROCOCCUS LUTEUS and CORYNEBACTERIUM JEIKIEUM) [Cj 1] | 6055000 | 65500 | 40000 | 175 | 0 | 
GGSGGNRWWQGVVP (MICROCOCCUS LUTEUS and CORYNEBACTERIUM JEIKIEUM) [Cj3] | 7040000 | 121500 | 27000 | 300 | 0 | 
GGSGGSKKHRKHRKHRKH (also: bound to textile) [pep] |  |  |  |  |  | CFU ([3]; 2.5 mg/ml pep, 0% PHMB): 0 CFU
GGSGGSWQHVFT (MICROCOCCUS LUTEUS and CORYNEBACTERIUM JEIKIEUM) [Cj 4] | 5315000 | 145000 | 28000 | 245 | 0 | 
GGSGGSYSTCDFIM (STAPHYLOCOCCUS AUREUS) [Peptide] |  |  |  |  |  | colonies counted (cells recovered from swatch) ([6]; peptide 1.75 mg/g): 475000; colonies counted (cells recovered from swatch) ([6]; peptide 2.5 mg/ml): 0; colonies counted (cells recovered from swatch) ([7]; peptide 1.75 mg/g): 4765000; colonies counted (cells recovered from swatch) ([7]; peptide 2.5 mg/ml): 0; lowest peptide concentration that will bind the cells ([1]; both strains): 2.5 mg/mL; binding of cells (in words) ([1]; both strains, peptide 2.5 mg/ml regardless of the PHMB concentration): completely bound all of the cells; binding of cells (in words) ([1]; lower peptide concentrations (below 2.5 mg/ml)): may have bound some of the cells, but not all of them; cells recovered (in words) ([1]; strains 27217 and 25923, peptide present (2.5 mg/ml), PHMB 0 or 0.0008%): no Staphylococcus aureus cell were recovered; binding by the peptide (in words) ([2]; S. aureus-binding peptide 2.5 mg/ml): does not appear to be any binding; colonies counted (cells recovered from swatch) ([2]; S. aureus-binding peptide 2.5 mg/ml, PHMB 0%): 693000
GGSGGTWTKKLK (MICROCOCCUS LUTEUS and CORYNEBACTERIUM JEIKIEUM) [Cj2] | 7680000 | 294000 | TNTC | 0 | 0 | 
